Test results: ChEMBL document CHEMBL1201862, “PubChem BioAssay data set” (2004)
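Five compound concentrations were applied to cells in 96-well plates for 48 hours; endpoints were derived by simple linear interpolation of the resulting dose-response curve. Here, GI50 denotes the concentration required for 50% inhibition of growth.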 Active and inactive are the calls of the source. Rule as the data show it: active = GI50 up to about 1.1 µM and inactive = higher.

Tests used:
Test in all cases: NCI-60 cell line screen, 48 h
A549 = system: A549
SR = system: SR
NCI-H226 = system: NCI-H226
SW-620 = system: SW-620
HCC 2998 = system: HCC 2998
OVCAR-5 = system: OVCAR-5
RPMI-8226 = system: RPMI-8226
SNB-19 = system: SNB-19
KM-20L2 = system: KM-20L2
IGROV-1 = system: IGROV-1
LOX IMVI = system: LOX IMVI
SN12C = system: SN12C
COLO 205 = system: COLO 205
HOP-62 = system: HOP-62
CCRF-CEM = system: CCRF-CEM
NCI-H460 = system: NCI-H460
RXF 393 = system: RXF 393
A498 = system: A498
HOP-92 = system: HOP-92
BT-549 = system: BT-549

SMILES	GI50 (A549)	GI50 (SR)	GI50 (NCI-H226)	GI50 (SW-620)	GI50 (HCC 2998)	GI50 (OVCAR-5)	GI50 (RPMI-8226)	GI50 (SNB-19)	GI50 (KM-20L2)	GI50 (IGROV-1)	GI50 (LOX IMVI)	GI50 (SN12C)	GI50 (COLO 205)	GI50 (HOP-62)	GI50 (CCRF-CEM)	GI50 (NCI-H460)	GI50 (RXF 393)	GI50 (A498)	GI50 (HOP-92)	GI50 (BT-549)
COC(=O)CC1N/C(=N\C#N)N(CCc2c[nH]c3ccccc23)C1=O (stereo not drawn)	> 100 µM (inactive)	94.2 µM (inactive)	> 100 µM (inactive)	> 100 µM (inactive)	34.5 µM (inactive)	> 100 µM (inactive)	> 100 µM (inactive)	> 100 µM (inactive)	> 100 µM (inactive)	> 100 µM (inactive)	> 100 µM (inactive)	> 100 µM (inactive)	> 100 µM (inactive)	> 100 µM (inactive)	> 100 µM (inactive)	> 100 µM (inactive)	> 100 µM (inactive)	–	–	–
O=C(c1ccccc1)C(Nc1ccc2ccccc2c1)c1ccccc1 (stereo not drawn)	33.3 µM (inactive)	7.89 µM (inactive)	> 60.7 µM (inactive)	27.7 µM (inactive)	20.7 µM (inactive)	> 52.7 µM (inactive)	11.1 µM (inactive)	34.7 µM (inactive)	–	29.7 µM (inactive)	35.3 µM (inactive)	26.9 µM (inactive)	17.6 µM (inactive)	36.6 µM (inactive)	13.7 µM (inactive)	21.2 µM (inactive)	> 43.9 µM (inactive)	21.3 µM (inactive)	41.7 µM (inactive)	32.1 µM (inactive)
O=C(CC1(O)C(=O)Nc2ccccc21)c1ccc(O)cc1O (stereo not drawn)	> 100 µM (inactive)	–	> 100 µM (inactive)	> 100 µM (inactive)	–	> 100 µM (inactive)	> 100 µM (inactive)	> 100 µM (inactive)	> 100 µM (inactive)	> 100 µM (inactive)	> 100 µM (inactive)	> 100 µM (inactive)	> 100 µM (inactive)	> 100 µM (inactive)	–	> 100 µM (inactive)	> 100 µM (inactive)	> 100 µM (inactive)	> 100 µM (inactive)	–
CC(=O)NC(CCCCN(Cc1ccccc1)C(=O)NCCCl)C(=O)NCc1ccccc1 (stereo not drawn)	> 100 µM (inactive)	> 100 µM (inactive)	> 100 µM (inactive)	> 100 µM (inactive)	> 100 µM (inactive)	–	> 100 µM (inactive)	> 100 µM (inactive)	> 100 µM (inactive)	> 100 µM (inactive)	–	> 100 µM (inactive)	> 100 µM (inactive)	> 100 µM (inactive)	> 100 µM (inactive)	> 100 µM (inactive)	–	–	> 100 µM (inactive)	–
CCOc1cccc2c1N[S@@](=O)S2	> 100 µM (inactive)	74.8 µM (inactive)	> 100 µM (inactive)	> 100 µM (inactive)	–	–	98.2 µM (inactive)	59.2 µM (inactive)	> 100 µM (inactive)	> 100 µM (inactive)	> 100 µM (inactive)	> 100 µM (inactive)	–	–	40.6 µM (inactive)	–	–	–	> 100 µM (inactive)	–
O=C(Nc1cccc(Cl)c1)C(=O)C(C(=O)c1ccc2ccccc2c1)C1OC(=O)c2ccccc21 (stereo not drawn)	30 µM (inactive)	–	2.86 µM (inactive)	18.9 µM (inactive)	10.2 µM (inactive)	24.8 µM (inactive)	7.67 µM (inactive)	5.3 µM (inactive)	33.7 µM (inactive)	22.4 µM (inactive)	17.3 µM (inactive)	18.6 µM (inactive)	17.1 µM (inactive)	16.8 µM (inactive)	11.2 µM (inactive)	8.75 µM (inactive)	–	6.01 µM (inactive)	20.6 µM (inactive)	–
COC1=C2CC(C)CC(OC)C(OC(=O)CN)[C@H](C)/C=C(\C)C(OC(N)=O)C(OC)/C=C\C=C(/C)C(=O)NC(=CC1=O)C2=O (stereo partly drawn)	9.73 µM (inactive)	0.321 µM (active)	10.4 µM (inactive)	0.065 µM (active)	1.9 µM (inactive)	1.03 µM (active)	0.902 µM (active)	6.55 µM (inactive)	–	0.453 µM (active)	0.284 µM (active)	0.412 µM (active)	0.0562 µM (active)	0.942 µM (active)	0.299 µM (active)	6.14 µM (inactive)	0.507 µM (active)	12.1 µM (inactive)	0.163 µM (active)	1.09 µM (active)
C/C=C1/C(=O)O[C@]23C=C[C@@H]4C(C(=O)OC)=CO[C@H](O[C@@H]12)[C@@H]43 [PLUMERICIN]	3.47 µM (inactive)	–	2.44 µM (inactive)	0.432 µM (active)	2.68 µM (inactive)	3.66 µM (inactive)	0.423 µM (active)	3.56 µM (inactive)	2.17 µM (inactive)	1.19 µM (inactive)	0.336 µM (active)	1.98 µM (inactive)	1 µM (active)	6.38 µM (inactive)	0.341 µM (active)	2.08 µM (inactive)	0.55 µM (active)	0.838 µM (active)	1.61 µM (inactive)	–
